Assay results as given in patent publication US20240315992A1, “AMINOXY ACID-BASED ANTIBACTERIAL COMPOUNDS AND METHODS THEREOF” (The University of Hong Kong, priority 2023, published 2024).
Values after ≈ are worked out from the molar mass of the structure shown. Like-named read-outs stand apart in the source and are kept apart here.

Experiments:
Assay type in all cases: cell-based
[1] = tested on: multidrug resistant Staphylococcus aureus Mu3; experiment: MIC by CLSI broth micro-dilution, MRSA Mu3
Method: (§1) Aminoxy acids were synthesized by the standard peptide coupling procedures. Minimum inhibitory concentration was determined using CLSI broth micro-dilution method in 96-wells microtitre plates. Minimum inhibitory concentration is defined as the lowest concentration of the compound that inhibits visible growth of the bacteria. All experiments were performed three times. 24 compounds including aminoxy acid monomers and dipeptides have been identified to show toxicity against multidrug resistant Staphylococcus aureus Mu3 and summarized in Table 1. The minimum inhibitory concentration of compound 8 and compound 35 on other gram-positive bacteria was also evaluated and summarized in Table 2. […] As shown in FIGS. 3A-3B there are no observable hemolysis for compound 8 and compound 35 towards human red blood cell.
(§2) Bacteria were streaked from the glycerol stock into BHI agar and were incubated overnight. Single colony was picked for the overnight culture in cation-adjusted Mueller Hinton broth (CAMH), LB or BHI. The overnight culture was sub-cultured and regrew to exponential phase for the experiment.
MIC was determined by CLSI broth micro-dilution method in 96-wells microtitre plates. For compounds dissolved in water, 100 μL of 2× testing concentration was added to the first well of each column, followed by two-fold serial dilution for successive wells with 50 μL medium. For chemical compounds dissolved in DMSO, the compounds were two-fold serial diluted by DMSO in a DMSO-compatible 96-well plate. 1 μL of compound in DMSO was transferred into 96-wells microtitre plate containing 50 μL medium to give 2× testing concentration. An overnight culture of bacteria was grown into exponential phase. The bacteria culture was diluted to 1×10^6 CFU/mL and 50 μL of diluted culture were added into each well. The test plates were kept in a 37° C. incubator overnight. Optical density was recorded by DTX 880 multimode detector (Beckman Coulter, California, US). MIC is defined as the lowest concentration of the compound that inhibits visible growth of bacteria. Biological replicates were performed. CAMH was used for bacteria culture and MIC test except S. pneumoniae, L. monocytogenes, E. faecalis and M. smegmatis for which BHI was used as culture medium

MSSA ATCC 35556 = experiment: MIC by CLSI broth micro-dilution, MSSA ATCC 35556; settings: Staphylococcus aureus, read-out: Minimum inhibitory concentration
Method: as §1, §2
(§3) MIC was determined by CLSI broth micro-dilution method in 96-wells microtitre plates. […] Optical density was recorded by DTX 880 multimode detector (Beckman Coulter, California, US). […]

MRSA-USA300LAC = experiment: MIC by CLSI broth micro-dilution, MRSA-USA300LAC; settings: Staphylococcus aureus, read-out: Minimum inhibitory concentration
Method: as §1, §2, §3

[2] = tested on: E. faecalis clinical strain; experiment: MIC by CLSI broth micro-dilution, E. faecalis; settings: Enterococcus faecalis, BHI medium, read-out: Minimum inhibitory concentration
Method: as §1, §2, §3

NIH3T3 cells = experiment: Mammalian cell cytotoxicity assay (MTT), NIH3T3; settings: for IC50: Mus musculus, NIH3T3, MTT assay, 24 hours, read-out: IC50, toxicity towards mammalian cells NIH3T3; for toxicity against mammalian cell NIH3T3: at 16 folded MIC (50 μM compound 8, 12.5 μM compound 35)
Method: NIH3T3 cells were cultured in DMEM supplemented with 10% fetal bovine serum (FBS), 100 U/ml penicillin and 0.1 mg/ml streptomycin. Cells were grown in treated culture flasks at 37° C. in a 5% CO2 humidified incubator and passaged every 2-3 days.
In the treated culture dish, cells were washed by PBS and then trypsinized. DMEM was added to quench the reaction. Cells were centrifuged and resuspended into fresh DMEM. Cells were then seeded in 96-well microtitre plate (100 μL, 5000 cells per well) for 24 hours before addition of compounds. The compounds were two-fold serial diluted by DMSO in a DMSO-compatible 96-well plate. 1 μL of compound in DMSO is transferred into the 96-well microtitre preparation plate containing 100 μL DMEM medium. The medium in culture plate was removed and compounds in preparation plate were transferred to culture plate. Equal volume of DMSO was used as negative control.
After 24 hours of incubation of cells, cell viability was measured by MTT assay. In MTT assay, 20 μL 5 mg/mL MTT solution in PBS was added to cell medium and cultured for 3 hours. The medium was then removed and 50 μL DMSO was added and cultured for 10 minutes. Absorbance at 595 nm was measured spectrophotometrically (Beckman Coulter DTX 880 Multimode Detector) and normalized to DMSO group. Biological replicates were performed.

[3] = tested on: Staphylococcus aureus ATCC 35556 biofilm formation; experiment: Inhibition of biofilm formation (crystal violet); settings: 24 hours treatment, also sub-inhibitory concentration
Method: Staphylococcus aureus ATCC 35556 was treated with various concentrations of compound 8, compound 35 or 1% DMSO as negative control for 24 hours. Biofilm was quantified using crystal violet. The data were normalized to DMSO (100% biofilm) and represent average values±S.D. (n=9 per group). Statistical analysis was performed by ANOVA with Dunnett's post-test to calculate p-values adjusted for multiple comparisons with DMSO as control condition (*p<0.05; **p<0.01; ***p<0.001).
Briefly, overnight cultures of Staphylococcus aureus ATCC 35556 in Tryptic Soy Broth (TSB) were sub-cultured from an overnight culture 1:100 for 2.5 hours. The bacteria were diluted 1:100 into fresh TSB and 200 μL bacteria in TSB was added to each well of a flat-bottomed 96-well plate (200 μL/well). Compounds (two-fold serial dilutions; final DMSO concentration of maximum 1%) were added. Plates were incubated at 37° C. for 24 hours. After 24 hours, the supernatant was removed and washed by PBS (200 μL) 2 times. Biofilms were dried at 37° C. for 30 minutes. 1% Crystal violet (25% ethanol in H2O) was diluted 1:5 in PBS and 200 μL was added to each well, followed by incubation at room temperature for 10 minutes. […] Following a 1:4 dilution step (33% acetic acid), optical density was measured at 595 nm by Beckman Coulter DTX 880 Multimode Detector. […]

[4] = tested on: Staphylococcus aureus ATCC 29213; experiment: Autolysis, optical density of culture; settings: 10×MIC, 24 hours
Method: Staphylococcus aureus ATCC 29213 in CAMH was challenged with […] compounds 8 or compound 35. OD595 was measured after 24 hours. Data represented the mean±S.D. of biological triplicates. Statistical analysis was performed by unpaired t test in 95% confidence interval (*=p<0.05; **p<0.01; ***p<0.001; ****[…]).
The overnight culture of Staphylococcus aureus ATCC 29213 was subcultured, regrown to exponential phase and then diluted to OD595=0.4. Bacteria were treated by 10×MIC of compound 8 and compound 35. At T=24 hour, OD595 was measured.

[5] = MRSA Mu3 (Table 2), read-out: Minimum inhibitory concentration
[6] = MRSA, CLSI broth micro-dilution, CAMH, read-out: Minimum inhibitory concentration (μM) in MRSA Mu3

| SMILES | MIC [1, 5] [µM] | MIC [1, 6] [µM] | MIC (MSSA ATCC 35556) [µM] | MIC (MRSA-USA300LAC) [µM] | MIC [2] [µM] | IC50 (NIH3T3 cells) [µM] | toxicity against mammalian cell NIH3T3 (NIH3T3 cells) | formation of the Staphylococcus aureus biofilm [3] | optical density (OD595) of culture, accelerated autolysis [4] |
| --- | --- | --- | --- | --- | --- | --- | --- | --- | --- |
| CC(C)C[C@H](ONC(=O)[C@@H](COCc1ccccc1)ONC(=O)c1cc(C(F)(F)F)cc(C(F)(F)F)c1)C(=O)Nc1ccc2c(c1)OC(F)(F)O2 [Compound 35] | 0.78 (≈ 0.574 µg/mL) | 0.781 (≈ 0.574 µg/mL) | 0.78 (≈ 0.574 µg/mL) | 1.56 (≈ 1.15 µg/mL) | 6.25 (≈ 4.6 µg/mL) | > 50 | minimal toxicity | significantly inhibited the formation of the Staphylococcus aureus biofilm even under sub-inhibitory concentration | reduction of the optical density |
| CC(C)C[C@H](ONC(=O)[C@@H](COCc1ccccc1)ONC(=O)c1cc(C(F)(F)F)cc(C(F)(F)F)c1)C(=O)Nc1ccccc1 [Compound 8] | 3.13 (≈ 2.05 µg/mL) | 3.13 (≈ 2.05 µg/mL) | 3.13 (≈ 2.05 µg/mL) | 3.13 (≈ 2.05 µg/mL) | 3.13 (≈ 2.05 µg/mL) | > 50 | minimal toxicity | significantly inhibited the formation of the Staphylococcus aureus biofilm even under sub-inhibitory concentration | reduction of the optical density |
